This is an account of results in PubChem BioAssay (NCI).

Among the test systems are EKVX NSCLC; OVCAR-4 ovarian; SK-OV-3 ovarian; TK-10 renal; CAKI-1 renal; NCI-H522 lung; K-562 leukemia; MOLT-4 leukemia; OVCAR-5 ovarian; A498 renal.
Common to all, as to test: NCI anticancer screen, dose series, 48 h

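Where inhibition never reached the appropriate level, the endpoint shown equals the highest concentration tested. Otherwise, values were interpolated linearly from a five-concentration, 48-hour dose response in 96-well plates. Here, GI50 denotes the concentration required for 50% inhibition of growth. TGI: total growth inhibition.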

Turning to `OCCCCC#Cc1ccccc1C#Cc1ccc(O)cc1`, the GI50 is 17 µM with EKVX NSCLC; 15.8 µM in the assay with OVCAR-4 ovarian; 20 µM with SK-OV-3 ovarian; 17.5 µM in the assay with TK-10 renal; 15.7 µM with CAKI-1 renal; 13.8 µM in the assay on NCI-H522 lung. The GI50 with K-562 leukemia was 20.4 µM; with MOLT-4 leukemia, 9.96 µM; in the assay with OVCAR-5 ovarian, 16.5 µM; in the assay on A498 renal it was 20.7 µM. Also, the TGI with EKVX NSCLC was found to be 37 µM; in the assay with OVCAR-4 ovarian it was 31.9 µM; in the assay with SK-OV-3 ovarian, 40.2 µM; with TK-10 renal, 31.7 µM; in the assay with CAKI-1 renal, 30.3 µM; in the assay with NCI-H522 lung, 28.8 µM. For the same compound, the TGI in the assay with K-562 leukemia was determined as 45 µM; with MOLT-4 leukemia, 38.9 µM; in the assay on OVCAR-5 ovarian, 35.2 µM; in the assay on A498 renal it was 38.5 µM.
For `CN(C)C(=O)Nc1nc2cc(Cl)c(Cl)cc2[nH]1`, the GI50 was 5.3 µM in the assay on EKVX NSCLC; 1.61 µM in the assay with OVCAR-4 ovarian; 1.09 µM with SK-OV-3 ovarian; 4.71 µM in the assay on TK-10 renal; 0.525 µM in the assay with CAKI-1 renal; 0.38 µM in the assay with NCI-H522 lung. The GI50 is 0.41 µM with K-562 leukemia, 1.01 µM in the assay on MOLT-4 leukemia, 19.8 µM in the assay with OVCAR-5 ovarian and 0.487 µM in the assay on A498 renal. Further, the TGI in the assay with EKVX NSCLC was > 100 µM; in the assay with OVCAR-4 ovarian, > 100 µM; in the assay on SK-OV-3 ovarian it was > 56.6 µM; in the assay on TK-10 renal, > 100 µM; in the assay with CAKI-1 renal, > 23.5 µM; in the assay on NCI-H522 lung it was 4.14 µM. Besides, the TGI was > 33.8 µM in the assay on K-562 leukemia, > 70.4 µM in the assay with MOLT-4 leukemia and > 100 µM with OVCAR-5 ovarian.
